Source: patent US8808702B2, “Sulfide, sulfoxide and sulfone chalcone analogues, derivatives thereof and therapeutic uses thereof” (Temple University-of the Commonwealth System of Higher …, priority 2006, dated 2014)
Read-outs that look alike come from different tables or passages of the source.

What was measured:
[1] = tested on: K562 (chronic myelogenous leukaemia); assay: Effect of compounds on tumor cell lines (assay of Latham et al.), K562; type: cell-based; conditions: K562 cells, read-out: K 562 potency (IC50)
Protocol: (§1) The effect of the compounds of the invention on tumor cells was determined by the assay described by Latham et al., Oncogene 12:827-837 (1996). Tumor cells K562 (chronic myelogenous leukaemia) or DU145 (prostate cancer) were plated in 12-well dishes at a cell density of 2.5×10^4 cells well. The plated cells were treated 24 hours later with a compound of the invention dissolved in DMSO at multiple concentrations ranging from 1 μM to 100 μM. The plates were examined 96 hours later under an inverted microscope, Olympus CK-2 using an 10× objective, and compound activity was noted by physical observation. When necessary, the total number of viable cells was determined by trypsinizing the wells and counting the number of viable cells, as determined by trypan blue exclusion, using a hemacytometer.
(§2) The representative compounds listed in Tables 1-5 are shown by way of illustration, and are not intended to limit the scope of the invention. The compounds are prepared and tested by methods based on those described above, except that the compound of Table 5 was dissolved in DMSO at multiple concentrations ranging from 0.1 μM to 100 μM

DU145 (prostate cancer) = assay: Effect of compounds on tumor cell lines (assay of Latham et al.), DU145; type: cell-based; conditions: DU145 cells, read-out: DU 145 potency (IC50)
Protocol: as §1, §2

[2] = Table 1, examined 96 hours after treatment, 1 μM to 100 μM in DMSO
[3] = 96 hours after treatment, 1 μM to 100 μM
[4] = Table 4, examined 96 hours after treatment, 1 μM to 100 μM in DMSO

SMILES	IC50 [1, 3] [µM]	IC50 (DU145 (prostate cancer); [3]) [µM]	also measured
CN(C)c1ccc(C=C(Sc2ccc(Br)cc2)C(=O)c2ccc(Cl)cc2)cc1 [Example 49]	–	–	IC50 [1, 2]: > 100 µM; IC50 (DU145 (prostate cancer); [2]): > 100 µM
O=C(C(=Cc1ccc(O)cc1O)Sc1ccccc1Br)c1ccc(Cl)cc1 [Example 7]	–	–	IC50 [1, 2]: 50 to 100 µM; IC50 (DU145 (prostate cancer); [2]): 50 to 100 µM
O=C(C(=Cc1ccc([N+](=O)[O-])cc1)SCc1ccc(Cl)cc1)c1ccc(Cl)cc1 [Example 326]	1 to 10	1 to 10	–
Cc1ccsc1C=C(SCc1ccc(Cl)cc1Cl)C(=O)c1ccc(Cl)cc1 [Example 119]	50 to 100	10 to 25	–
Cc1ccc(SC(=Cc2c[nH]c3ccc(Cl)cc23)C(=O)c2ccc(Cl)cc2)cc1 [Example 108]	–	–	IC50 [1, 2]: 1 to 10 µM; IC50 (DU145 (prostate cancer); [2]): 1 to 10 µM
CCN(CC)CCNC(=O)c1c(C)[nH]c(/C=C(\C(=O)c2ccc(Br)cc2)S(=O)(=O)Cc2ccc(Br)cc2)c1C [Example 370]	–	–	IC50 [1, 4]: 1 to 10 µM; IC50 (DU145 (prostate cancer); [4]): 1 to 10 µM
O=C(C(=Cc1ccc(F)c([N+](=O)[O-])c1)SCc1ccc(Br)cc1)c1ccc(F)cc1 [Example 318]	≤ 1	≤ 1	–
Cc1ccc(SC(=Cc2ccc(C)s2)C(=O)c2ccc(Br)cc2)cc1 [Example 109]	–	–	IC50 [1, 2]: 50 to 100 µM; IC50 (DU145 (prostate cancer); [2]): > 100 µM
Cc1ccc(SC(=Cc2cc([N+](=O)[O-])ccc2F)C(=O)c2ccc(Cl)cc2)cc1 [Example 74]	–	–	IC50 [1, 2]: 1 to 10 µM; IC50 (DU145 (prostate cancer); [2]): 10 to 25 µM
Cc1ccc(SC(=Cc2ccc(Cl)cc2Cl)C(=O)c2ccc(Cl)cc2)cc1 [Example 71]	–	–	IC50 [1, 2]: 25 to 50 µM; IC50 (DU145 (prostate cancer); [2]): 10 to 25 µM
O=C(C(=Cc1ccc([N+](=O)[O-])c(O)c1)SCc1ccc(Br)cc1)c1ccc([N+](=O)[O-])cc1 [Example 158]	1 to 10	1 to 10	–

The next lines start with results.

IC50 [1, 3] [µM]	IC50 (DU145 (prostate cancer); [3]) [µM]	SMILES	also measured
10 to 25	10 to 25	O=C(C(=Cc1ccccc1OCc1ccccc1)SCc1ccc(Cl)c(Cl)c1)c1ccc(Cl)cc1 [Example 139]	–
10 to 25	10 to 25	O=C(C(=Cc1cc(Cl)c(O)c(Cl)c1)SCc1ccc(Br)cc1)c1ccc(Br)cc1 [Example 148]	–
1 to 10	1 to 10	O=C(C(=Cc1cccnc1)SCc1ccc(Cl)cc1)c1ccc(Br)cc1 [Example 321]	–
1 to 10	1 to 10	O=C(O)c1ccc(C(=O)/C(=C\c2ccc(Cl)c([N+](=O)[O-])c2)SCc2ccc(C(F)(F)F)cc2)cc1 [Example 350]	–
1 to 10	10 to 25	O=C(C(=Cc1ccc(Cl)cc1)SCc1ccccc1Cl)c1ccc(Cl)cc1 [Example 130]	–
50 to 100	50 to 100	CN(C)c1ccc(C=C(SCc2ccc(Cl)c(Cl)c2)C(=O)c2ccc(Cl)cc2)cc1 [Example 142]	–
1 to 10	1 to 10	O=C(O)c1ccc(C(=O)C(=Cc2ccc(Br)c([N+](=O)[O-])c2)SCc2ccccc2Cl)cc1 [Example 302]	–
25 to 50	25 to 50	O=C(C(=Cc1ccc(Cl)cc1Cl)SCc1ccc(Cl)cc1)c1ccc(Cl)cc1 [Example 195]	–
1 to 10	10 to 25	O=C(C(=Cc1ccc(Cl)cc1)SCc1ccc(Cl)cc1Cl)c1ccc(Cl)cc1 [Example 122]	–
10 to 25	10 to 25	O=C(C(=Cc1ccc(F)cc1C(F)(F)F)SCc1ccc(F)cc1)c1ccc(Br)cc1 [Example 260]	–
10 to 25	25 to 50	O=C(C(=Cc1ccc[nH]1)SCc1ccc(Cl)cc1)c1ccc(Cl)cc1 [Example 201]	–
1 to 10	10 to 25	O=C(/C(=C\c1ccc(O)c([N+](=O)[O-])c1)SCc1ccc(Br)cc1)c1ccc(C(F)(F)F)cc1 [Example 186]	–
≤ 1	≤ 1	O=C(C(=Cc1ccc(F)c([N+](=O)[O-])c1)SCc1ccc(Br)cc1)c1ccc(C(=O)N2CCN(CCO)CC2)cc1 [Example 316]	–
1 to 10	1 to 10	O=C(/C(=C\c1ccc(O)c([N+](=O)[O-])c1)SCc1ccc(Br)cc1)c1ccc([N+](=O)[O-])c(Cl)c1 [Example 179]	–
10 to 25	10 to 25	Cc1ccc(C)c(C=C(SCc2ccc(Cl)cc2)C(=O)c2ccc(Cl)cc2)c1 [Example 197]	–
